US11224224B2, “Thiobenzoimidazole as fungicides” (REDAG CROP PROTECTION LTD, priority 2017, dated 2022)
≈ marks a conversion by molar mass, not a printed value. One block for each molecule: values may come before it.

Key:
Format in all cases: cell-based
[1] = system: Pythium ultimum; assay: Amended agar assay (PDA), colony growth; set-up: key to % control Pythium ultimum 20 ppm: D: no control detected at this concentration; C: up to 50% control; B: from 50 to 99% control; A: a control of greater than 99%, i.e. no detectable colony growth; settings: for % control Pythium ultimum 20 ppm / inhibition of growth at 20 ppm: 20 ppm in amended PDA, 18° C., reduction in colony growth vs control plate; for EC50 / inhibition of growth at 20 ppm: Globisporangium ultimum; for EC50: amended agar, 5-fold dilutions
Description: (§1) Testing was carried out on potato dextrose agar (PDA) amended with each compound at a test concentration of 20 ppm. Amended agar was poured into three replicate 9 cm petri dishes. Each replicate dish was inoculated in the centre with a 5 mm agar plug taken from the leading edge of a culture aged between 2 and 7 days old; the age of the culture was dependant on the growth rate of the pathogen being tested. The test pathogens were Pythium ultimum and Phytophthora cinnamomi. Plates were incubated at 18° C. and the diameter of each colony measured before growth on the fastest growing plate reached the plate edge. This varied between 2 and 7 days depending on the growth rate of test pathogens. The % reduction in colony growth compared to the control plate was calculated for each pathogen. The results are provided in Table 1, in which D represents no control detected at this concentration; C represents up to 50% control; B from 50 to 99% control; and A represents a control of greater than 99%, i.e. no detectable colony growth.
(§2) Alternatively, or in addition, the same assay was conducted at descending test concentrations with 5-fold dilutions typically down to 0.032 ppm though sometimes as low as 0.00026 ppm, and an EC50 (the concentration at which 50% control would be achieved) was determined. The results are provided in Table 1 in which G represents an EC50 above 20 ppm, F represents an EC50 of 1-20 ppm and E represents and EC50 less than 1 ppm.

[2] = system: Phytophthora cinnamomi; assay: Amended agar assay (PDA), colony growth; set-up: key to % control Phytophthora spp. 20 ppm: D: no control detected at this concentration; C: up to 50% control; B: from 50 to 99% control; A: a control of greater than 99%, i.e. no detectable colony growth; settings: for inhibition of growth at 20 ppm / EC50: Phytophthora cinnamomi; for inhibition of growth at 20 ppm / % control Phytophthora spp. 20 ppm: 20 ppm in amended PDA, 18° C., reduction in colony growth vs control plate; for inhibition of growth at 20 ppm: read-out: % control Phytophthora spp. 20 ppm; for EC50: amended agar, 5-fold dilutions (cells without *), read-out: EC50 Phytophthora spp.
Description: as §1, §2

[3] = system: oomycete plant pathogens; assay: Fungicidal activity testing, overall summary; settings: summary statement on Table 1
Description: The activity of compounds of the invention was assessed by testing against certain oomycete plant pathogens and representative data are presented in Table 1.

[4] = system: Pythium ultimum; assay: Amended agar assay (PDA), colony growth; settings: Globisporangium ultimum; read-out: % control Pythium ultimum 2 ppm

Structure (SMILES): Cn1nnnc1-n1c(SCc2cccc(C(=O)O)n2)nc2ccccc21 [Compound 29]
- % control Pythium ultimum 20 ppm [1]: D
- inhibition of growth at 20 ppm [2]: < 50%

- EC50 [1]: > 20 µg/mL
- EC50 [2]: > 20 µg/mL
Structure (SMILES): Cn1nnnc1-n1c(SCc2cnc(Cl)s2)nc2ccccc21 [Compound 30]
- % control Pythium ultimum 20 ppm [1]: D
- % control Phytophthora spp. 20 ppm [2]: D

- EC50 [1]: > 20 µg/mL
- EC50 [2]: > 20 µg/mL
Structure (SMILES): c1ccc(CSc2nc3ccccc3n2-c2ncon2)nc1 [Compound 31]
- inhibition of growth at 20 ppm [1]: < 50%

Structure (SMILES): c1ccc(CSc2nc3ccccc3n2-c2ccccn2)nc1 [Compound 32]
- % control Pythium ultimum 20 ppm [1]: D
- % control Phytophthora spp. 20 ppm [2]: D

- EC50 [1]: > 20 µg/mL
- EC50 [2]: > 20 µg/mL
Structure (SMILES): O=C(Nc1cccc(CSc2nc3ccccc3n2-c2ccccn2)n1)C(F)(F)Oc1ccccc1 [Compound 33]
- % control Pythium ultimum 20 ppm [1]: D
- % control Phytophthora spp. 20 ppm [2]: D

Structure (SMILES): Cn1nnnc1-n1c(SCc2cccc(NC(=O)C(F)(F)Oc3ccccc3)n2)nc2ccccc21 [Example 1, 2,2-Difluoro-N-(6-(((1-(1-methyl-1H-tetrazol-5-yl)-1H-benzo[d]imidazol-2-yl)thio)methyl)pyridin-2-yl)-2-phenoxyacetamide]
- inhibition of growth at 20 ppm [1]: > 99%
- EC50 [1]: < 1 µg/mL
- inhibition of growth at 20 ppm [2]: > 99%
- EC50 [2]: < 1 µg/mL
- control over the pathogens tested [3]: good to excellent control

Structure (SMILES): Cn1nnnc1-n1c(SCc2ccccn2)nc2ccccc21 [Example 2]
- inhibition of growth at 20 ppm [1]: > 99%
- EC50 [1]: 1 to 20 µg/mL (≈ 3.09 to 61.8 µM)
- inhibition of growth at 20 ppm [2]: 50 to 99%
- EC50 [2]: < 1 µg/mL
- control over the pathogens tested [3]: good to excellent control
- inhibition of growth at 2 ppm [4]: > 99%

Structure (SMILES): Cn1nnnc1-n1c(SCc2csc(N)n2)nc2ccccc21 [Example 3]
- inhibition of growth at 20 ppm [1]: > 99%
- inhibition of growth at 20 ppm [2]: > 99%
- control over the pathogens tested [3]: good to excellent control

- EC50 [1]: 1 to 20 µg/mL (≈ 1.99 to 39.7 µM)
- EC50 [2]: 1 to 20 µg/mL (≈ 1.99 to 39.7 µM)
Structure (SMILES): Cc1cccnc1-n1c(SCc2cccc(NCC(F)(F)Oc3ccccc3)n2)nc2ccccc21 [Example 4]

Structure (SMILES): Cn1nccc1-n1c(SCc2ccccn2)nc2ccccc21 [Example 5]
- inhibition of growth at 20 ppm [1]: < 50%
- inhibition of growth at 20 ppm [2]: < 50%

Structure (SMILES): Cc1noc(-n2c(SCc3ccccn3)nc3ccccc32)c1C [Example 6]
- inhibition of growth at 20 ppm [1]: 50 to 99%
- inhibition of growth at 20 ppm [2]: 50 to 99%

Structure (SMILES): Cn1nnnc1-n1c(SCc2ccccn2)nc2ccc(F)cc21 [Example 7]
- EC50 [1]: < 1 µg/mL
- EC50 [2]: < 1 µg/mL
- control over the pathogens tested [3]: good to excellent control

Structure (SMILES): Cn1nnnc1-n1c(SCc2cccc(NC(=O)C(F)(F)Oc3ccccc3)n2)nc2ccc(F)cc21 [Example 8]
- EC50 [1]: < 1 µg/mL
- EC50 [2]: < 1 µg/mL
- control over the pathogens tested [3]: good to excellent control
- inhibition of growth at 2 ppm [4]: 50 to 99%

Structure (SMILES): Cn1nnnc1-n1c(SCc2cccc(NC(=O)OC(C)(C)C)n2)nc2ccccc21 [Example 9]
- EC50 [1]: < 1 µg/mL
- EC50 [2]: < 1 µg/mL
- control over the pathogens tested [3]: good to excellent control

Structure (SMILES): Cc1cccnc1-n1c(SCc2ccccn2)nc2ccccc21 [Example 10]
- inhibition of growth at 20 ppm [1]: 50 to 99%
- inhibition of growth at 20 ppm [2]: < 50%

Structure (SMILES): CC(=O)Nc1nc(CSc2nc3ccccc3n2-c2nnnn2C)cs1 [Example 11]
- EC50 [1]: < 1 µg/mL
- EC50 [2]: < 1 µg/mL
- control over the pathogens tested [3]: good to excellent control

Structure (SMILES): Cn1nnnc1-n1c(SCc2cscn2)nc2ccccc21 [Example 12]
- EC50 [1]: < 1 µg/mL
- EC50 [2]: < 1 µg/mL
- control over the pathogens tested [3]: good to excellent control

- EC50 [1]: > 20 µg/mL
- EC50 [2]: > 20 µg/mL
Structure (SMILES): Cc1cccc(CSc2nc3ccccc3n2-c2nnnn2C)n1 [Example 13]
- inhibition of growth at 20 ppm [1]: < 50%
- % control Phytophthora spp. 20 ppm [2]: D

Structure (SMILES): Cc1cc(-n2c(SCc3ccccn3)nc3ccccc32)sn1 [Example 14]
- inhibition of growth at 20 ppm [1]: < 50%
- inhibition of growth at 20 ppm [2]: < 50%

- EC50 [1]: > 20 µg/mL
- EC50 [2]: > 20 µg/mL
Structure (SMILES): c1ccc(CSc2nc3ccccc3n2-c2ccon2)nc1 [Example 15]
- inhibition of growth at 20 ppm [1]: < 50%
- % control Phytophthora spp. 20 ppm [2]: D

Structure (SMILES): Cc1nc(CSc2nc3ccccc3n2-c2nnnn2C)cs1 [Example 16]
- inhibition of growth at 20 ppm [1]: > 99%
- EC50 [1]: 1 to 20 µg/mL (≈ 2.91 to 58.2 µM)
- inhibition of growth at 20 ppm [2]: 50 to 99%
- EC50 [2]: 1 to 20 µg/mL (≈ 2.91 to 58.2 µM)
- control over the pathogens tested [3]: good to excellent control

Structure (SMILES): CNc1nc(CSc2nc3ccccc3n2-c2nnnn2C)cs1 [Example 17]
- inhibition of growth at 20 ppm [1]: > 99%
- EC50 [1]: < 1 µg/mL
- inhibition of growth at 20 ppm [2]: > 99%
- EC50 [2]: < 1 µg/mL
- control over the pathogens tested [3]: good to excellent control

Structure (SMILES): COC(=O)c1cccc(CSc2nc3ccccc3n2-c2nnnn2C)n1 [Example 18]
- inhibition of growth at 20 ppm [1]: < 50%
- % control Phytophthora spp. 20 ppm [2]: D

Structure (SMILES): Cn1nnnc1-n1c(SCc2cc3ccccc3cn2)nc2ccccc21 [Example 19]
- inhibition of growth at 20 ppm [1]: 50 to 99%
- inhibition of growth at 20 ppm [2]: 50 to 99%

- EC50 [1]: > 20 µg/mL
- EC50 [2]: > 20 µg/mL
Structure (SMILES): Cc1nccnc1-n1c(SCc2ccccn2)nc2ccccc21 [Example 20]
- inhibition of growth at 20 ppm [1]: < 50%
- % control Phytophthora spp. 20 ppm [2]: D

Structure (SMILES): Cn1nnnc1-n1c(SCc2ccccn2)nc2c(F)cc(F)cc21 [Example 21]
- inhibition of growth at 20 ppm [1]: > 99%
- EC50 [1]: < 1 µg/mL
- inhibition of growth at 20 ppm [2]: > 99%
- EC50 [2]: < 1 µg/mL
- control over the pathogens tested [3]: good to excellent control

Structure (SMILES): Cn1nnnc1-n1c(SCc2csc(NC(=O)C(F)(F)Oc3ccccc3)n2)nc2ccccc21 [Example 22]
- EC50 [1]: < 1 µg/mL
- EC50 [2]: < 1 µg/mL
- control over the pathogens tested [3]: good to excellent control

Structure (SMILES): Cn1nnnc1-n1c(SCc2csc(NC(=O)OC(C)(C)C)n2)nc2ccccc21 [Example 23]
- EC50 [1]: < 1 µg/mL
- EC50 [2]: < 1 µg/mL
- control over the pathogens tested [3]: good to excellent control

Structure (SMILES): COC(=O)CSc1nc2ccccc2n1-c1nnnn1C [Example 24]
- inhibition of growth at 20 ppm [1]: < 50%
- inhibition of growth at 20 ppm [2]: 50 to 99%

Structure (SMILES): Cn1nnnc1-n1c(SCC(=O)N2CCCC2)nc2ccccc21 [Example 25]
- EC50 [1]: < 1 µg/mL
- EC50 [2]: < 1 µg/mL
- control over the pathogens tested [3]: good to excellent control
- inhibition of growth at 2 ppm [4]: 50 to 99%

Structure (SMILES): Cn1nnnc1-n1c(SCc2cccc(N)n2)nc2ccccc21 [Example 26, 6-(((1-(1-Methyl-1H-tetrazol-5-yl)-1H-benzo[d]imidazol-2-yl)thio)methyl)pyridin-2-amine]
- inhibition of growth at 20 ppm [1]: > 99%
- inhibition of growth at 20 ppm [2]: > 99%
- control over the pathogens tested [3]: good to excellent control

Structure (SMILES): CC(=O)Nc1cccc(CSc2nc3ccccc3n2-c2nnnn2C)n1 [Example 27, N-(6-(((1-(1-Methyl-1H-tetrazol-5-yl)-1H-benzo[d]imidazol-2-yl)thio)methyl)pyridin-2-yl)acetamide]
- inhibition of growth at 20 ppm [1]: > 99%
- inhibition of growth at 20 ppm [2]: 50 to 99%
- control over the pathogens tested [3]: good to excellent control

Structure (SMILES): CCOC(=O)Nc1cccc(CSc2nc3ccccc3n2-c2nnnn2C)n1 [Example 28, Ethyl (6-(((1-(1-methyl-1H-tetrazol-5-yl)-1H-benzo[d]imidazol-2-yl)thio)methyl)pyridin-2-yl)carbamate]
- EC50 [1]: < 1 µg/mL
- EC50 [2]: < 1 µg/mL
- control over the pathogens tested [3]: good to excellent control

Structure (SMILES): O=C(Nc1cccc(CSc2nc3ccccc3n2-c2ncncc2Cl)n1)C(F)(F)Oc1ccccc1 [Example 45]
- EC50 [1]: < 1 µg/mL
- EC50 [2]: < 1 µg/mL
- control over the pathogens tested [3]: good to excellent control

Structure (SMILES): COC(=O)c1cccc(CSc2nc3ccccc3n2-c2ncccc2C)n1 [Example 46]
- % control Pythium ultimum 20 ppm [1]: D
- inhibition of growth at 20 ppm [2]: < 50%

Structure (SMILES): Cn1ccnc1-n1c(SCc2ccccn2)nc2ccccc21 [Example 49]
- inhibition of growth at 20 ppm [1]: > 99%
- EC50 [1]: 1 to 20 µg/mL (≈ 3.11 to 62.2 µM)
- inhibition of growth at 20 ppm [2]: 50 to 99%
- EC50 [2]: 1 to 20 µg/mL (≈ 3.11 to 62.2 µM)
- control over the pathogens tested [3]: good to excellent control

Structure (SMILES): Cn1ccnc1-n1c(SCc2cccc(NC(=O)C(F)(F)Oc3ccccc3)n2)nc2ccccc21 [Example 50]
- EC50 [1]: < 1 µg/mL
- EC50 [2]: < 1 µg/mL
- control over the pathogens tested [3]: good to excellent control

Structure (SMILES): Cn1nnnc1-n1c(SCc2ccccn2)nc2ccc(Br)cc21 [Example 52]
- inhibition of growth at 20 ppm [1]: 50 to 99%
- EC50 [1]: 1 to 20 µg/mL (≈ 2.49 to 49.7 µM)
- inhibition of growth at 20 ppm [2]: 50 to 99%
- EC50 [2]: < 1 µg/mL
- control over the pathogens tested [3]: good to excellent control

Structure (SMILES): Cn1nnnc1-n1c(SCc2csc(NC(=O)OC(C)(C)C)n2)nc2ccc(Br)cc21 [Example 53]
- EC50 [1]: < 1 µg/mL
- EC50 [2]: < 1 µg/mL
- control over the pathogens tested [3]: good to excellent control
